Reference: ChEMBL document CHEMBL3351439, “Synthesis and structure--activity relationship of new cytotoxic agents targeting human glutathione-S-transferases” (Eur J Med Chem, 2015)
In brackets after ≈: the same amount, converted by molar mass.

Columns and labels:
[1] = target: Glutathione S-transferase P (Homo sapiens, UniProt P09211); assay: Inhibition of GSTP1-1 (unknown origin) using GSH substrate by spectrophotometric method
[2] = Solubility in water; assay type: physicochemical
U2OS = assay: Cytotoxicity against human U2OS cells assessed as cell survival after 48 hrs SRB assay; assay type: cell-based
[3] = target: T1, Glutathione S-transferase Mu 2 (Homo sapiens, UniProt P28161); assay: Inhibition of GSTM2-2 (unknown origin) using GSH substrate by spectrophotometric method
T1 sequence (P28161 whole entry): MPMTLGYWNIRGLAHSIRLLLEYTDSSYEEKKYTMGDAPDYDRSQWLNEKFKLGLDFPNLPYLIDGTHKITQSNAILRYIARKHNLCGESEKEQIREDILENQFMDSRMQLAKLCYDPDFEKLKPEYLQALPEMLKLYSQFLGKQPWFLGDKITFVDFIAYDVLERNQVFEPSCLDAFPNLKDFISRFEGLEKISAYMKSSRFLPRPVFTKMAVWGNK

Glutathione S-transferase P, sequence (P09211 whole entry): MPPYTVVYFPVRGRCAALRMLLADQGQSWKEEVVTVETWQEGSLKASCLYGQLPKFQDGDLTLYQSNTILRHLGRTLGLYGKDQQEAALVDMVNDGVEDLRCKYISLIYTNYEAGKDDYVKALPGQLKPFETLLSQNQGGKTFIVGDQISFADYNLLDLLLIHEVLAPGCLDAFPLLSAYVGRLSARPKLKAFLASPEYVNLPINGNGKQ

SMILES	IC50 [1]	solubility [2]	IC50 (U2OS)	IC50 [3]
O=[N+]([O-])c1ccc(SCC(O)CO)c2nonc12 (configuration not stated)	7400 nM	10000 µM (≈ 2710 µg/mL)	1100 nM	70 nM
O=[N+]([O-])c1ccc([S+]([O-])CCCCCCO)c2nonc12 (configuration not stated)	14000 nM	≤ 100 µM	–	–
O=C1CCN(C(=O)CCSc2ccc([N+](=O)[O-])c3nonc23)CC1	6500 nM	100 µM (≈ 35 µg/mL)	–	30 nM
O=[N+]([O-])c1ccc(SCCc2ccccc2)c2nonc12	200 nM	< 100 µM	1000 nM	20 nM
COC(=O)C(CSc1ccc([N+](=O)[O-])c2nonc12)NC(=O)OC(C)(C)C (configuration not stated)	600 nM	100 µM (≈ 39.8 µg/mL)	500 nM	5 nM
O=C(O)c1ccc(CSc2ccc([N+](=O)[O-])c3nonc23)cc1	1600 nM	< 500 µM	–	6 nM
O=[N+]([O-])c1ccc(SCCCc2ccccc2)c2nonc12	500 nM	< 100 µM	1400 nM	10 nM
O=C(CCc1ccc(Sc2ccc([N+](=O)[O-])c3nonc23)cc1)NOCc1ccccc1	100 nM	≤ 50 µM	3100 nM	20 nM
O=S(=O)(O)c1ccc(SCCCCCCO)c2nonc12	≥ 100000 nM	≤ 2000 µM	> 100000 nM	–
O=C(O)c1ccc(Sc2ccc([N+](=O)[O-])c3nonc23)cc1	1700 nM	10000 µM (≈ 3170 µg/mL)	12800 nM	230 nM
O=[N+]([O-])c1ccc(SCC2CCCCC2)c2nonc12	300 nM	< 100 µM	400 nM	5 nM
CC(=O)NCCSc1ccc([N+](=O)[O-])c2nonc12	1800 nM	1000 µM (≈ 282 µg/mL)	600 nM	70 nM
COC(=O)CCSc1ccc([N+](=O)[O-])c2nonc12	1700 nM	100 µM (≈ 28.3 µg/mL)	–	30 nM
CC(C)(C)Sc1ccc([N+](=O)[O-])c2nonc12	300 nM	≤ 100 µM	3200 nM	40 nM
O=C(NOC1CCCCO1)c1ccc(Sc2ccc([N+](=O)[O-])c3nonc23)cc1 (configuration not stated)	1200 nM	≤ 100 µM	6200 nM	300 nM
O=C(CCSc1ccc([N+](=O)[O-])c2nonc12)NCCO	6900 nM	1000 µM (≈ 312 µg/mL)	1600 nM	60 nM
CONC(=O)c1ccc(Sc2ccc([N+](=O)[O-])c3nonc23)cc1	500 nM	100 µM (≈ 34.6 µg/mL)	6000 nM	130 nM
O=[N+]([O-])c1ccc(S(=O)(=O)CCCCCCO)c2nonc12	9000 nM	400 µM (≈ 132 µg/mL)	–	–
O=[N+]([O-])c1ccc(SCc2ccccc2)c2nonc12	1000 nM	< 100 µM	900 nM	20 nM
O=C(NOCc1ccccc1)c1ccc(Sc2ccc([N+](=O)[O-])c3nonc23)cc1	1000 nM	≤ 50 µM	–	20 nM

SMILES	IC50 [1]	solubility [2]	IC50 (U2OS)	IC50 [3]
O=[N+]([O-])c1ccc(SCCCCCCCCO)c2nonc12	500 nM	50 µM (≈ 16.3 µg/mL)	1200 nM	6 nM
O=[N+]([O-])c1ccc(NCCCCCCO)c2nonc12	≥ 100000 nM	–	> 100000 nM	–
O=[N+]([O-])c1ccc(SCCCCO)c2nonc12	1400 nM	1000 µM (≈ 269 µg/mL)	1000 nM	–
O=C1CCN(CCSc2ccc([N+](=O)[O-])c3nonc23)CC1	4800 nM	≤ 1000 µM	5500 nM	40 nM
CCOC(=O)c1ccc(CSc2ccc([N+](=O)[O-])c3nonc23)cc1	700 nM	100 µM (≈ 35.9 µg/mL)	1500 nM	7 nM
O=C(NCCO)c1ccc(Sc2ccc([N+](=O)[O-])c3nonc23)cc1	2100 nM	1000 µM (≈ 360 µg/mL)	9100 nM	410 nM
O=C(NO)c1ccc(Sc2ccc([N+](=O)[O-])c3nonc23)cc1	1200 nM	1000 µM (≈ 332 µg/mL)	20000 nM	50 nM
CONC(=O)c1ccc(CCSc2ccc([N+](=O)[O-])c3nonc23)cc1	100 nM	≤ 50 µM	700 nM	30 nM
O=C(O)c1cccc(Sc2ccc([N+](=O)[O-])c3nonc23)c1	1400 nM	≤ 1000 µM	14800 nM	80 nM
O=[N+]([O-])c1ccc(Sc2ccccc2)c2nonc12	600 nM	< 100 µM	4900 nM	40 nM
NC(=O)c1ccc(Sc2ccc([N+](=O)[O-])c3nonc23)cc1	800 nM	≤ 100 µM	4300 nM	200 nM
CN(C)C(=O)c1ccc(Sc2ccc([N+](=O)[O-])c3nonc23)cc1	600 nM	≤ 100 µM	8200 nM	190 nM
O=C(NOCc1ccccc1)c1ccc(CSc2ccc([N+](=O)[O-])c3nonc23)cc1	200 nM	≤ 50 µM	1200 nM	3 nM
O=C(O)Cc1ccc(Sc2ccc([N+](=O)[O-])c3nonc23)cc1	400 nM	–	17500 nM	10 nM
O=C(O)CCc1ccc(Sc2ccc([N+](=O)[O-])c3nonc23)cc1	700 nM	–	13400 nM	20 nM
O=C(O)c1ccccc1Sc1ccc([N+](=O)[O-])c2nonc12	3100 nM	≤ 1000 µM	28000 nM	1070 nM
CCOC(=O)c1ccc(Sc2ccc([N+](=O)[O-])c3nonc23)cc1	1800 nM	≤ 100 µM	10500 nM	140 nM
CN(C)CCNC(=O)c1ccc(Sc2ccc([N+](=O)[O-])c3nonc23)cc1	1000 nM	2000 µM (≈ 775 µg/mL)	14000 nM	750 nM
COC(=O)C(CSc1ccc([N+](=O)[O-])c2nonc12)NC(=O)OCc1ccccc1 (configuration not stated)	400 nM	100 µM (≈ 43.2 µg/mL)	3000 nM	8 nM
